Entries after “also recorded” stand apart in the source; their conditions may differ.
Columns and labels:
[1] = system: senescent SMCs; test: Cellular viability (cytotoxicity) assay of senescent and normal SMCs; type: cell-based; conditions: premature senescence by H2O2, Arsenite or Nutlin 3a, FIG. 2A
Method: FIGS. 2A-2L. (a) Cytotoxicity assay of normal smooth muscle cells (NS) and senescent smooth muscle cells (SMCs). Replicative senescent SMCs (RS) and premature senescent SMCs, stimulated by H2O2 (HP), arsenic (Ars), and Nutlin 3a (Nut) treatment were treated with βHB, s-βHB, and ABT-737. (b) Flow cytometry analysis of apoptosis by βHB or s-βHB in radiation (10 Gy)-induced senescent SMC. (c) Quantitation of apoptotic cell and senescent cell after treating βHB and s-βHB in radiation-induced senescent SMC. (d) Representative aorta image of AII-infused mice with post-treatment of ABT-737, βHB and s-βHB. (e) External diameter of abdominal aorta infused with AII and post-treated with ABT-737 βHB and s-βHB. (f) SA-βGal activity assay of the whole aorta infused with AII, and post-treated with ABT-737, KD, or KE. (g) Quantitation of senescent area on aorta of AII-infused mice, and post-treated with KD, KE and ABT-737. (h) TUNEL assay on the abdominal aorta of AII infused mice, and treated with ABT-737, βHB, or s-βHB. SM-α Actin (SMA) and DAPI are co-stained after TUNEL reaction. […]
The clearance of senescent cells that accumulate during the aneurysm development is required to reduce the volume of aneurysm plaque. Thus, the senotherapeutic potential of βHB to reverse AAA progression was evaluated. […]

[2] = system: angiotensin II (AII)-induced AAA; test: AII-induced AAA mouse model, post-treatment; type: in vivo; conditions: injection every other day for two weeks, FIG. 2E
[3] = system: normal SMCs (NC); test: Caspase 3 activity assay on normal SMCs; type: cell-based; conditions: FIG. 2I
Method: (§1) FIGS. 2A-2L. (a) Cytotoxicity assay of normal smooth muscle cells (NS) and senescent smooth muscle cells (SMCs). Replicative senescent SMCs (RS) and premature senescent SMCs, stimulated by H2O2 (HP), arsenic (Ars), and Nutlin 3a (Nut) treatment were treated with βHB, s-βHB, and ABT-737. (b) Flow cytometry analysis of apoptosis by βHB or s-βHB in radiation (10 Gy)-induced senescent SMC. (c) Quantitation of apoptotic cell and senescent cell after treating βHB and s-βHB in radiation-induced senescent SMC. (d) Representative aorta image of AII-infused mice with post-treatment of ABT-737, βHB and s-βHB. (e) External diameter of abdominal aorta infused with AII and post-treated with ABT-737 βHB and s-βHB. (f) SA-βGal activity assay of the whole aorta infused with AII, and post-treated with ABT-737, KD, or KE. (g) Quantitation of senescent area on aorta of AII-infused mice, and post-treated with KD, KE and ABT-737. (h) TUNEL assay on the abdominal aorta of AII infused mice, and treated with ABT-737, βHB, or s-βHB. SM-α Actin (SMA) and DAPI are co-stained after TUNEL reaction. (i) Caspase 3 activity assay on normal SMCs (NC) treated with βHB, or s-βHB, and ABT-737 comparing to normal cells pretreated with Nutlin-3a. (j) Caspase 3 activity assay on senescent SMCs (SNC) treated with βHB, or s-βHB, and ABT-737 compared to senescent cells pretreated with pifithrin-α. (k) Western blot analysis for p53 and puma expression on abdominal aorta tissue from mice treated with AII or KE. (I) Immunohistochemistry staining for puma expression on abdominal aorta infused by AII and post-treated with KE.
To overcome the anti-apoptotic barrier of senescence cells, senolytics usually target p53/Bcl2 cascades. Moreover, p53 is considered as a barrier to prevent apoptosis in senescence cells. Therefore, it was investigated if βHB-mediated apoptosis is p53 dependent. […] To further validate p53 dependent apoptosis on AAA, p53 activation and puma expression were investigated. […] In addition, inflammatory response accompanying the apoptosis of senescence cells was observed specifically in the abdominal aorta tissue, while systemic inflammation decreased during ketotherapy (FIGS. 10A-F). […] Ketotherapy can lower the blood pressure caused by AII infusion, which is not the case with ABT-737 (FIGS. 10H-J).

[4] = system: senescent SMCs; test: Flow cytometry (FACS) apoptosis analysis, PI and Annexin V; type: cell-based; conditions: FIGS. 2B, 2C
Method: as §1, with “(k) Western blot analysis for p53 and puma expression on abdominal aorta tissue from mice treated with AII or KE. (I) Immunohistochemistry staining for puma expression on abdominal aorta infused by AII and post-treated with KE.” left out

[5] = system: lysine β-hydroxybutyrylation (KβHB); test: Immunoblotting of lysine β-hydroxybutyrylation (KβHB) in SMCs; type: cell-based; conditions: FIG. 15A
Excerpt: FIGS. 15A-15B show immunoblotting of lysine β-hydroxybutyrylation (KβHB) on whole cell lysate (WCL) and fractionated lysate. (b) Immunofluorescent staining of SMA, KβHB, and DAPI on abdominal aorta.
Since epigenetic regulation directly affects the activity of transcriptional factors, such as Oct4, we evaluated if βHB is related to histone remodeling. βHB is a substrate of acyltransferase resulting in β-hydroxybutyrylation, a unique posttranslational modification that controls protein activity or gene expression. We hypothesize that β-hydroxybutyrylation on histone induces histone remodeling facilitating cellular reprogramming. To determine that β-hydroxybutyrylation (KβHB) is observed in senescent SMCs or aneurysms, we applied a specific antibody detecting KβHB modified protein. […] Together, it is supposed that β-hydroxybutyryl histone triggers the reprogramming process of senescent SMCs by regulating Oct4, which is overexpressed in aneurysms.

[6] = system: CaCl2-induced AAA; test: CaCl2-induced AAA animal model, post-treatment; type: in vivo, mouse
Method: FIGS. 5A-5J. (a) Representative image of aorta which developed CaCl2)-induced AAA, and post-treated with KD, KE, βHB, s-βHB, or ABT-737. KD is provided to mice for 4 weeks, KE is administrated with drinking water, βHB, s-βHB or ABT-737 are IP injected for 2 weeks with 48h intervals. (b) Incidence of AAA by CaCl2) treatment and proportion of mice recovered from the AAA after post-treatment of KD, KE, βHB and s-βHB for 2 weeks. (c) Time-dependent observation of inner diameter after CaCl2) treatment and post-treatment of KD or KE (28˜56 days after surgery). (d) Comparison of ultrasound images of CaCl2)-induced AAA to the identical aorta post-treated with βHB for 2 weeks. (e) H&E staining of aorta from the mice developed with CaCl2)-induced AAA, and post-treated with KD, KE, βHB, and s-βHB. (f) SA β-Gal activity assay on aorta which developed CaCl2)-induced AAA, and post-treated with KD, KE, βHB, s-βHB, or ABT-737. (g) Quantitation of senescent area on aorta developed with CaCl2)-induced AAA, and post-treated with KD, KE, βHB, s-βHB. (h) Verhoeff Van Gieson/EVG staining of abdominal aorta developed with CaCl2)-induced AAA, post-treated with KD, KE, βHB and s-βHB. (i) Average number of elastic fibers on abdominal aorta presented at FIG. 5H. (j) Measurement of Pulse Wave Velocity (PWV) on CaCl2)-infused mice with post-treatment of KD, KE, βHB, and s-βHB.
To confirm the possibility that the therapeutic effect of βHB on AAA is not only applied to AII-induced AAA, the CaCl2)-induced AAA animal model was also examined as well (FIG. 5A).
To further validate the therapeutic efficacy of s-βHB on aneurysms, we used a CaCl2-induced AAA animal model as well as an angiotensin II infusion model. […] Two-way ANOVA, s-βHB vs βHB, #P<0.01, n=10. Since the elimination of senescent SMCs is critical for the recovery of AAA, we investigated that s-βHB is also effective to remove senescent cells in CaCl2)-induced aneurysms. […] Student's T-test for s-βHB vs βHB, ^#P<0.05, n=8.

## C[C@@H](O)CC(=O)O [βHB, (R)-3-Hydroxybutyrate]
[1]
  number of senescent SMCs versus normal SMCs: selectively reduced the number of senescent SMCs and not normal SMCs; also recorded: slightly reduced
[2]
  external diameter of the abdominal aorta: significantly reduced
[3]; after p53 stabilization by Nutlin 3a
  apoptosis in normal cells after p53 stabilization: triggers apoptosis
[3]; without Nutlin 3a
  apoptosis in normal cells (NC): did not induce apoptosis
[4]
  apoptosis of senescent SMCs: induced targeted apoptosis of senescent SMCs
[5]
  KβHB modified proteins, Western blot: increases KβHB modified proteins
[6]; FIG. 5D
  abnormal curvature on aortic wall (ultrasound): repaired abnormal curvature on aortic wall
[6]; FIGS. 5A and 5B
  recovery from CaCl2-induced AAA: Effective recovery
[6]; FIGS. 5F and 5G
  senescent cells, SA β-gal assay: significantly reduced; also recorded: less effective than KD, KE and s-βHB
[6]; FIGS. 5H and 5I
  elastic laminar / vascular integrity: improved vascular integrity
[6]; comparison between treatments, FIG. 5B
  recovery rate of AAA: less effectiveness compared to s-βHB, KD, and KE treatment
[6]; post-treatment after four weeks, FIG. 5C
  AAA progression: inhibited AAA progression

From patent US20240342121A1, “THE USE OF BETA-HYDROXYBUTYRATES FOR THE TREATMENT OR PREVENTION OF ANEURYSMS AND DISSECTIONS” (priority 2021, published 2024)
